Laboratory results published in patent US8309530B2, “Compositions and methods for modulating ghrelin-mediated conditions” (Washington State University, priority 2009, dated 2012).
Entries after “also recorded” stand apart in the source; their conditions may differ.

Key:
ghrelin mRNA = assay: initial screening of ghrelin siRNAs using cultured cells: suppression of ghrelin mRNA in vitro; assay type: cell-based, mouse
Description: In certain preferred embodiments, baseline food intake for the 12-h light and dark period is measured over a 48-h time period in rats (n=16) that receive no treatment. On the third day, rats are separated randomly into two groups. One group of rats (n=8) is treated with scrambled ghrelin siRNA, the other group of rats receive ghrelin siRNA in the same volume administered orally by using an intragastric gavage. The dose and the specific siRNA is determined by an initial screening of ghrelin siRNAs using cultured cells. The siRNA that induces a significant suppression of ghrelin mRNA (for example, Applicants have shown that GGUUCAAUGCUCCCUUCGAtt (SEQ ID NO:17) suppressed ghrelin mRNA levels by 40% in vitro) compared to scrambled or saline control is, then, used in vivo. Food intake is measure before dark and light onset on each experimental day and for 5 additional days after the siRNA treatment. Body weight is monitored once a day. Additionally, rats are implanted with EEG and EMG electrodes for sleep-wake recordings.

ghrelin KO mice [1] = assay: bolus injections of obestatin in ghrelin KO mice (preliminary data); assay type: in vivo; details: preliminary data (not shown)
From the text: (§1) Likewise, in addition to ghrelin, another product of the ghrelin gene is obestatin. The effects of obestatin on food intake and metabolism appear to be the opposite of those of ghrelin although the results are still inconclusive (2, 10-14). If obestatin has a leptin-like role in the regulation of metabolism, then decreased resistance to metabolic challenge in ghrelin KO mice could be explained by the lack of this hormone. Based on this idea, Applicants attempted to rescue the herein disclosed impaired phenotype by replacing obestatin in ghrelin KO mice. There are several potential ways to do this, although each has its own limitations. The effects of a single bolus injection of obestatin are limited by the half-life of the peptide (22±2 min). […] Because of those limitations, obestatin was replaced using osmotic minipumps. This method also has limitations. The minipumps are filled and implanted at least 10 days before the challenge to allow enough time for recovery and to carry out the experiment. The stability of obestatin in solution at body temperature for such extended time period is unknown. Moreover, some of the biological effects of obestatin show a bell-shaped dose-response relationship. It is unknown whether the amount of obestatin released from the minipumps provides the optimal plasma levels or appropriate pulsatile or ultradian secretion patterns.

ghrelin KO mice [2] = assay: obestatin replacement by osmotic minipump in ghrelin KO mice, fasting in cold environment; assay type: in vivo
From the text: as §1, with “It is unknown whether the amount of obestatin released from the minipumps provides the optimal plasma levels or appropriate pulsatile or ultradian secretion patterns.” left out
Body temperature data are expressed as difference from baseline in 10-min averages.

Substance: SEQ ID NO:17: ghrelin siRNA (mouse), sequence GGUUCAAUGCUCCCUUCGAtt (GGUUCAAUGCUCCCUUCGATT; chemistry not given here)
- suppression of ghrelin mRNA levels (ghrelin mRNA): 40%

Substance: obestatin
- hypothermia in ghrelin KO mice (ghrelin KO mice [1]): attenuated hypothermia
- development of hypothermia / hypothermic response (ghrelin KO mice [2]; osmotic minipump, fasting day): significantly attenuated; also recorded: significantly delayed
- entered hypothermia later than those that received saline (ghrelin KO mice [2]; subcutaneous infusion of 300 nmol/kg/day for 10 days by osmotic minipump): about 6 hours
